Columns and labels:
[1] = tested on: HOP-92 lung cancer cell lines; assay: Cell survival, colorimetric MTT assay, HOP-92; assay type: cell-based, human; conditions: 72 hours; for reduced the survival of HOP92 cell lines by: 100 μM
Method: 1) Against the lung cancer cell lines: The effect of the racemic mixture of 8-HHA and that of the individual enantiomers, namely S and R enantiomers, were examined on the survival of HOP-92 lung cancer cell lines. The cell viability was examined in the exponential growth phase with 100 μM of 8-HHA for 72 hours using colorimetric MTT assay. In separate assays, HOP-92 cells were treated with different concentrations of the S-enantiomer of 8-HHA ranging from 20-100 μM for 72 hours.

[2] = tested on: PARP; assay: PARP cleavage in SNU liver cancer cells; assay type: cell-based; conditions: 100 μM
Excerpt: (§1) PARP cleavage is considered a specific and well established marker of apoptosis. During apoptosis, FAS receptor undergoes down regulation, which is considered as an established indicator of apoptosis. Apoptosis can be induced by a pathway stimulated by FAS receptor binding to FAS ligand and is called extrinsic mechanism. Apoptosis by this pathway results in the reduction of FAS receptor.
(§2) 1) Against liver cancer cell lines: The effect of 8-HHA was examined on apoptosis in liver cancer cell lines.

[3] = tested on: SNU449 liver cancer cell line; assay: Cell survival, colorimetric MTT assay, SNU449; assay type: cell-based; conditions: 100 μM, 72 hours
Method: (§3) 2) Against the liver cancer cell lines: The effect of the racemic mixture of 8-HHA and that of the individual enantiomers, namely S and R enantiomers, were examined on survival of PLC/PRF/5 (also referred to as “PLC-5” or “PLC5”), Hep3B and SNU449 (also referred to as “SNU”) liver cancer cell lines. The cell viability was examined in the exponential growth phase with 100 μM of 8-HHA for 72 hours using colorimetric MTT assay. In separate assays, PLC-5 cells were treated with different concentrations of S-enantiomer of 8-HHA ranging from 20-100 μM for 72 hours.

[4] = tested on: Bim1; assay: Pro-apoptotic Bim1 in HOP92 cells; assay type: cell-based, human; conditions: 100 μM, 72 hours
Method: Bim1 is a pro-apoptotic protein whose up regulation leads to apoptosis. HOP92 cell lines were treated with 100 μM of S-enantiomer of 8-HHA for 72 hours.

[5] = tested on: Hep3B liver cancer cell line; assay: Cell survival, colorimetric MTT assay, Hep3B; assay type: cell-based; conditions: 100 μM, 72 hours
Method: as §3

[6] = tested on: PLC/PRF/5 liver cancer cell line; assay: Cell survival, colorimetric MTT assay, PLC/PRF/5; assay type: cell-based; conditions: 72 hours
Method: as §3

[7] = tested on: FAS receptor; assay: FAS receptor levels in PLC-5 cells; assay type: cell-based; conditions: 100 μM, 72 hours
Method: as §1
PLC-5 cell lines were treated with […] 100 μM for 72 hours.

[8] = tested on: FAS receptor; assay: FAS protein levels in HOP-92 cells; assay type: cell-based, human; conditions: HOP92 cells, 100 μM, 72 hours
Method: as §1
2) Against lung cancer cell lines: HOP-92 lung cancer cell lines were treated with 100 μM of (S)-8-HHA for 72 hours.

[9] = tested on: PARP; assay: PARP cleavage in PLC-5 liver cancer cells; assay type: cell-based; conditions: PLC-5 cells, 100 μM
Excerpt: as §1, §2

[10] = tested on: HeLa cells; assay: HeLa cell viability by Alamar Blue assay; assay type: cell-based; conditions: 24, 48 and 72 hrs
Excerpt: Assessment of cell viability by alamar blue reduction method is routinely used for illustrating cytotoxic potential of candidate drugs. Alamar blue detects cell viability by utilizing a blue non-fluorescent dye resazurin, which is converted to a pink fluorescent dye, resorufin by cellular metabolic intermediates. The fluorescent signal generated from the assay is proportional to the number of living cells in the sample. Confluent HeLa cells (70-80%) grown in T-75 flasks were detached using trypsin-EDTA. Following centrifugation, the cells pellet was resuspended in DMEM medium and counted using a hemocytometer. Cells were seeded into 96 well plate at a density of 10,000 cells/100 μl/well and incubated at 37° C./5% CO2 for 8 hrs. Media was removed and test compounds were added in the volume of 100 μl. […] At the end of 24, 48 & 72 hrs treatment with test compound, fluorescence was measured at 530 excitation and 590 nm emissions using a micro plate reader. Viability expressed as % control was plotted against drug concentration.
The mean value of duplicate wells was calculated. […] The percentage of cell viability of test samples was calculated as:
[formula] IC50 values were determined by nonlinear regression analysis (curve fit) of percent viability data against drug concentration using the sigmoidal dose-response (variable) equation (Graph Pad Prism 4 software).

SMILES: CCCCCCCC[C@@H](O)CCCCCCC(=O)O [(R)-8-HHA, 8(R)-hydroxypalmitic acid]
- reduced the survival of HOP92 cell lines by [1]: 13%

SMILES: CCCCCCCC[C@H](O)CCCCCCC(=O)O [(S)-8-HHA, 8(S)-hydroxypalmitic acid]
- reduced the survival of HOP92 cell lines by [1]: 72%
- IC50 ([1]; Homo sapiens, HOP-92, 20-100 μM, read-out: 50% reduction in cell survival (IC50)): ~90 µM
- PARP cleavage [2]: resulted in the PARP cleavage
- effect on survival of SNU cell line [3]: ~75%
- Bim1 increase compared to the control sample [4]: 2 fold
- reduced the survival of Hep3B cell line by [5]: ~75%
- reduced the survival of PLC-5 cell line by ([6]; 100 μM): ~75%
- IC50 ([6]; Homo sapiens, PLC-5, 20-100 μM, read-out: 50% reduction in cell survival (IC50)): ~50 µM
- FAS receptor levels compared to the control [7]: substantial reduction in FAS receptor levels
- FAS protein levels [8]: reduction of FAS protein levels
- PARP cleavage [9]: resulted in the PARP cleavage

SMILES: CC(C)(C)c1ccc(C(O)CCCN2CCC(C(O)(c3ccccc3)c3ccccc3)CC2)cc1 (stereo not shown) [Terfenadine]
- HeLa cell viability, result in words [10]: dose dependent inhibition

Source: patent publication US10478464B2, “Compositions and methods of use” (priority 2009, dated 2019)
